This note sets out measurements from US20050037989A1, “Inhibition of gene function by delivery of polynucleotide-based gene expression inhibitors to mammalian cells in vivo” (priority 2001, published 2005).

Data set [1] relates to mouse HMG CoA reductase mRNA. The data set can be described thus: Serum triglyceride levels after tail vein injection of siRNA against HMG CoA reductase. Type of data set: in vivo, Apoetm1Unc mice. The settings on record: for Triglyceride levels: absorbance at 520 nm. As for the experimental part: Group A (series2) mice (5 mice) were each injected with 50 μg of an siRNA directed against mouse HMG CoA reductase mRNA. Group B (Series 1) mice (5 mice) were an uninjected control group. Group A and Group B animals were bled 7 days before, 2 days after, 4 days after, and 7 days after the injection. Serum samples were stored at −20° C. until all timepoints had been collected. Each group's serum samples from a given time-point were pooled prior to the triglyceride assays. Triglyceride assays were performed in quintuplicate.
A total of 50 μg of siRNA-HMGCR was dissolved in 2.2 ml Ringer's solution (147 mM NaCl, 4 mM KCl, 1.13 mM CaCl2), and injected into the tail vein of ApoE (−/−) mice over 7-12 seconds. Control mice were not injected and are referred to here as naive. Each mouse was bled from the retro-orbital sinus at various times prior to and after injection. Cells and clotting factors were pelleted from the blood to obtain serum. The serum triglyceride levels were then assayed by a enzymatic, colorimetric assay using the Infinity Triglyceride Reagent (Sigma Co.).
Triglyceride assays. Serum samples were diluted 1:100 in the Infinity Triglyceride Reagent (2 μl in 200 μl) in a clear, 96-well plate. Each assay plate was then incubated at 37° C. for five minutes, removed and allowed to cool to room temperature. Absorbance was measured at 520 nm using a SpectraMax Plus plate reader (Molecular Devices, Inc). Background absorbance (no serum added) was subtracted from each reading and the resulted data was plotted versus timepoint.

Data set [2] has as its system HMGCR mRNA in primary hepatocytes. The data set can be described thus: HMGCR mRNA in primary hepatocytes cultured with anti-HMGCR siRNA and/or atorvastatin (qPCR). Type of data set: cell-based, C57B6 mice. The settings on record: siRNA alone, 24 hours. As for the experimental part: qPCR assays. Quantitative, real-time PCR was performed using the Bio-Rad icycler system and iCycler reagents as recommended by the manufacturer. The primers used to amplify HMGCR sequences were SEQ ID 17 and SEQ ID 31.
Total RNA from these cells was isolated and transcribed into cDNA using an oligo-dT primer and reverse transcriptase. Subsequently, HMGCR levels were assayed using quantitative, real-time PCR.
(In general: In qPCR the cycle at which signal appears reflects the starting amount.)

d = 2'-deoxy (DNA); r = 2'-OH (RNA)

On to “siRNA-HMGCR: annealed oligomers SEQ ID 25 and SEQ ID 26, positions 2324-2344 of murine HMG CoA reductase reading frame (Examples 16, 18) (chain 1 ACAUUGUCACUGCUAUCUATT; chain 2 UAGAUAGCAGUGACAAUGUTT; sugars from the 5' end r19 d2, backbone not given here; listed as Mus musculus)”, for which, in data set [1] (50 μg siRNA tail vein, after 7 days), the “triglyceride levels (in words)” value is listed as “returned to normal levels”. In addition, the triglyceride levels reduced in data set [1] (50 μg siRNA tail vein, after two days) amounted to 62%; in data set [1] (50 μg siRNA tail vein, second value, printed again as after two days) it was 56%. The Triglyceride levels was 0.082 ± 0.006 in data set [1] (day +2, pooled serum); 0.095 ± 0.005 in data set [1] (day +4, pooled serum); 0.189 ± 0.012 in data set [1] (day +7, pooled serum); 0.218 ± 0.008 in data set [1] (day −7 (before injection), pooled serum). For the same substance, the “HMGCR mRNA, % of that seen in control cells” value in data set [2] is on record as “approximately 20%”.
